Assay: Sensory panel astringency ranking after brushing with toothpaste samples
Assay type: in vivo
Settings: for astringency ratings compared to those of the standard toothpaste base and the current market product: flavour material at 1000 ppm in toothpaste base with 0.75% zinc citrate, statement in words; for Astringency Rating (0-10): mean rating by a panel of three trained experts, 0 = no astringency, 10 = strong astringency, ingredients at 1000 ppm (0.1% w/w) in Standard Toothpaste Base with 0.75% Zinc Citrate, 30 seconds brushing, spit out, one water rinse
Procedure: Differing flavour ingredients were added, at a concentration of 1000 ppm, to a non-flavoured toothpaste base containing 0.75% zinc citrate (ZCT).
Measured samples, of equal weight, of the non-flavoured toothpaste base containing 0.75% ZCT and the same toothpaste base modified with flavour ingredients were then placed on toothbrushes. The samples were tested by a panel of three independent trained experts. The panelists were instructed to brush their teeth for 30 seconds, spit out and rinse once with water. The subjects were then asked to rank the astringency on a scale of 0 to 10 for each sample, 0 representing no astringency and 10 representing strong astringency. A current market product was also tested in the same way.
Table 1 lists the flavour ingredients added to the non-flavoured toothpaste base containing 0.75% zinc citrate, along with the mean astringency rating of each sample. Also included in table 1 is the mean astringency rating of the non-flavoured toothpaste base containing 0.75% ZCT and the current market product.

What does the source list for CC1=C(O)C(=O)CC1 [Cyclotene, 2-hydroxy-3-methyl-2-cyclopenten-1-one]?
astringency ratings compared to those of the standard toothpaste base and the current market product: significantly lower astringency ratings; Astringency Rating (0-10): 4.5

Which “astringency ratings compared to those of the standard toothpaste base and the current market product” value does the source give for CCc1occc(=O)c1O [Ethyl Maltol, 2-ethyl-3-hydroxy-4H-pyran-4-one] here?
Its value is “significantly lower astringency ratings”.

What about the “Astringency Rating (0-10)” value of the same compound?
The value was 3.5.

What does the source list for Cc1occc(=O)c1O [Maltol, 3-hydroxy-2-methyl-4H-pyran-4-one]?
astringency ratings compared to those of the standard toothpaste base and the current market product: significantly lower astringency ratings; Astringency Rating (0-10): 3.8

Which “Astringency Rating (0-10)” value does the source give for COc1cc(C=O)ccc1O [Vanillin, reference compound] here?
The value was 6.5.

Reference: patent publication US20120082631A1, “COMPOSITIONS” (priority 2009, published 2012)
